Literature values in US20160324796A1, “COMPOSITIONS AND THEIR USE TO TREAT COMPLICATIONS OF ANEURYSMAL SUBARACHNOID HEMMORRHAGE” (Edge Therapeutics, Inc., priority 2007, published 2016).
Where two headings read alike, the source gives them in different places. Ends that are not written are not given here.

Key:
[1] = system: R-type calcium current; conditions: cited from earlier work
[2] = system: K+ and Na+ currents, and L, P/Q and T-type calcium currents; conditions: cited from earlier work
[3] = molecular target: N-type calcium current (Homo sapiens, UniProt Q00975); conditions: at 300 nM to 500 nM; cited from earlier work
[4] = system: patients with SAH; conditions: cited from earlier work
[5] = system: patients with SAH; conditions: cited from earlier work; for patients with primary end point: placebo 27%; for patients with poor outcome (extended Glasgow Outcome Scale score </=4): placebo 24%

Sequence of N-type calcium current (Q00975 whole entry): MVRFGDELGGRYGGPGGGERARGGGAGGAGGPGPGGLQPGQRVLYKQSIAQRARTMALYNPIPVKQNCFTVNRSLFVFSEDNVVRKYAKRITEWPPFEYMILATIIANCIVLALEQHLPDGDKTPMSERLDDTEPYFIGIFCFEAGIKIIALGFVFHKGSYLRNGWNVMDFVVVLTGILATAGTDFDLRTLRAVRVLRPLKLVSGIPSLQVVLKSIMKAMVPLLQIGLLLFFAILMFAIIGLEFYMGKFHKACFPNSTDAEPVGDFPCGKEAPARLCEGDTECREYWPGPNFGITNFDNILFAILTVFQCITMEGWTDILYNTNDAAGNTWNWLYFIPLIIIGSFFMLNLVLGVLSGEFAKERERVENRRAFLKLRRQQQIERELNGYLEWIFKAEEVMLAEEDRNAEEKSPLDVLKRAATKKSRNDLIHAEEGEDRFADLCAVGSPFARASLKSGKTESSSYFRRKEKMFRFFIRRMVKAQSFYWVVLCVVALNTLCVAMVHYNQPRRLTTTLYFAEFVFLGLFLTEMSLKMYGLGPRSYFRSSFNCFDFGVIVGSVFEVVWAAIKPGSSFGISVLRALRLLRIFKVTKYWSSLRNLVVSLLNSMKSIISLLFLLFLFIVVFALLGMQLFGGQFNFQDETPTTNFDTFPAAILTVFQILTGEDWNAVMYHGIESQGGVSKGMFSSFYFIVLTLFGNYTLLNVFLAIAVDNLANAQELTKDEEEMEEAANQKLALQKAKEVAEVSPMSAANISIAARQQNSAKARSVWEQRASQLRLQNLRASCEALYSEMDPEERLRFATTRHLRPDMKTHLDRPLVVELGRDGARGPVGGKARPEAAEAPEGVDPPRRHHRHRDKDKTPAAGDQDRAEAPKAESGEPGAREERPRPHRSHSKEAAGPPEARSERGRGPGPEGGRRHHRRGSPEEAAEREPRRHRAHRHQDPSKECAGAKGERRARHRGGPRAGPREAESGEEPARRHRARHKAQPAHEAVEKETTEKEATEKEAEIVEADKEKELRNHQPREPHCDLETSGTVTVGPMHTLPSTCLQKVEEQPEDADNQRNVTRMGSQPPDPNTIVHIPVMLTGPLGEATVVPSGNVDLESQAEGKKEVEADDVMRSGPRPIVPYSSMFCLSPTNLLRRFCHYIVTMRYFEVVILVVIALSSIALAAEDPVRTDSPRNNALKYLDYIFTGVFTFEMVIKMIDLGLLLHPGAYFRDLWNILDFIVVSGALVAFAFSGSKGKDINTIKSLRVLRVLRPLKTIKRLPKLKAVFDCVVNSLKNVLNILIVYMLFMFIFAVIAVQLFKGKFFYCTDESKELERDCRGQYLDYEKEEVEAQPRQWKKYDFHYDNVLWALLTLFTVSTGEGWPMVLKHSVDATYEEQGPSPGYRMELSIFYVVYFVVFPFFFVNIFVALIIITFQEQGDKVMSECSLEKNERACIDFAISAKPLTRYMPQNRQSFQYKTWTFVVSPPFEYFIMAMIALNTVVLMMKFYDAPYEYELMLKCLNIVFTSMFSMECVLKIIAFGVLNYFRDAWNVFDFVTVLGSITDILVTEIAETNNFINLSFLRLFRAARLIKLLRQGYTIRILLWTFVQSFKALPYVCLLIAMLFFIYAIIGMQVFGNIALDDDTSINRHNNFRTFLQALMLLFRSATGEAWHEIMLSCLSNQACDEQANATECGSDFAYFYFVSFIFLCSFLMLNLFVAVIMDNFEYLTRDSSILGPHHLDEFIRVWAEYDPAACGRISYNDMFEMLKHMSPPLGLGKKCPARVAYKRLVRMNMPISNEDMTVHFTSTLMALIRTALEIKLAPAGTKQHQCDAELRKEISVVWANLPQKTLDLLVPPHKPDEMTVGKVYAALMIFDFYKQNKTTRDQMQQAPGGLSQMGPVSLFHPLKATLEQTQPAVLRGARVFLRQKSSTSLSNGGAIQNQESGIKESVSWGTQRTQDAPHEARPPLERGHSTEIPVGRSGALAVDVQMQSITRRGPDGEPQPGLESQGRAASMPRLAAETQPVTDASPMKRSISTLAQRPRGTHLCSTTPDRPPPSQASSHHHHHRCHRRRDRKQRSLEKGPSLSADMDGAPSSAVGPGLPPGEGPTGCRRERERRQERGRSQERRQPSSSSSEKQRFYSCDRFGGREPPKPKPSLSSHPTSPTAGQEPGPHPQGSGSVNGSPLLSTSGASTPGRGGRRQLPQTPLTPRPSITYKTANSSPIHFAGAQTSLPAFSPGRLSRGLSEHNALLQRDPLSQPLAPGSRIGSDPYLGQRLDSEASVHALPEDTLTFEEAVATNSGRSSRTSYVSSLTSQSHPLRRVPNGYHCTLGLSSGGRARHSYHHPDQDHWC

For “SNX-482: toxin from the tarantula Hysterocrates gigas, a 41 amino acid residue peptide with 3 disulfide linkages; putative R-type selective blocker (GVDKAGCRYMFGGCSVNDDCCPRLGCHSLFSYCAWDLTFSD; disulfide (positions not given here); UniProt P56854 1-41, looked up)”, the “block of R-type calcium current” value ([1]; neurohypophysial nerve endings, 40 nM) is given as “blocks”, the “effect on R-type current” value ([1]; preparations of the neuronal cell body, retinal ganglion cells and hippocampal pyramidal cells) is given as “no significant effect” and the “effect on K+ and Na+ currents, and L, P/Q and T-type calcium currents” value [2] is given as “no effect”. The “block of N-type calcium current” value [3] was 30-50%.

For COc1ccccc1Oc1c(NS(=O)(=O)c2ccc(C)cn2)nc(-c2ccnc(-c3nnn[nH]3)c2)nc1OCCO [clazosentan], the “patients meeting primary composite endpoint (week 6)” value ([4]; 5 mg/h up to 14 days, 161 of 764 patients, placebo 25%) is listed as 21%, the “relative risk reduction, primary composite endpoint” value ([4]; 5 mg/h versus placebo, 95% CI -4 to 33, p=0.10) is listed as 17% and the “relative risk reduction, poor functional outcome” value ([4]; 5 mg/h versus placebo, −45 to 4, p=0.10) is listed as −18%. The “patients with poor functional outcome (GOSE score </=4)” value ([4]; 5 mg/h, placebo 25%) was 29%, the “Mortality (week 12)” value ([4]; 5 mg/h, same in placebo) was 6% and the “odds ratio, primary end point” value ([5]; 5 mg/h versus placebo, 95% CI 0.479-1.289, P=0.340) was 0.786. For the same compound, the “odds ratio, poor outcome” value ([5]; 5 mg/h versus placebo, 95% CI 0.546-1.544, P=0.748) was 0.918, the “patients with primary end point” value ([5]; 5 mg/h, 47/194) was 24% and the “patients with poor outcome (extended Glasgow Outcome Scale score </=4)” value ([5]; 5 mg/h) was 25%. For the same compound, the “odds ratio, primary end point” value ([5]; 15 mg/h versus placebo, 95% CI 0.275-0.818, P=0.007) was 0.474, the “odds ratio, poor outcome” value ([5]; 15 mg/h versus placebo, 95% CI 0.802-2.227, P=0.266) was 1.337 and the “patients with primary end point” value ([5]; 15 mg/h, 28/188) was 15%. The “patients with poor outcome (extended Glasgow Outcome Scale score </=4)” value ([5]; 15 mg/h) was 28%.
